Where two headings read alike, the source gives them in different places.
Legend:
platelet = assay: Anti-platelet aggregation effect in rabbits (ADP-induced); type: cell-based, rabbit; settings: rabbit PRP, ADP 5 to 10 μM, 37° C., read-out: IC50 (concentration at which aggregation of control sample was 50% inhibited)
Procedure: Anti-platelet aggregation effect in rabbits
Blood was collected from the abdominal artery of Japanese white male rabbits (weight: 1.8 to 2.5 kg) into a syringe containing 1/10 volume 3.8% sodium citrate. The blood thus obtained was subjected to a centrifugation at 200×g for 7 minutes at room temperature to obtain platelet rich plasma (PRP). Furthermore, the residue was subjected to a centrifugation at 2000×g for 10 minutes to obtain platelet poor plasma (PPP). The measurement was effected by diluting PRP with PPP to 300,000/mm^3. PRP and PPP were placed in a cuvette, and the measurement range of transmittance was adjusted to 0% in the case of PRP and to 100% in the case of PPP. Thereafter, a test sample drug dissolved in 100% dimethylsulfoxide (DMSO) was added to PRP (the final concentration of DMSO: 0.25%). After incubation was effected at 37° C. at 900 rpm for 2 minutes, an aggregating agent was added to record an aggregation curve. The anti-platelet aggregation effect of the test sample drug was expressed by a concentration (IC50 : μM) at which the aggregation of control sample was 50% inhibited. The aggregating agent ADP was used at the minimum concentration (5 to 10 μM) which caused the maximum aggregation. The measurement of platelet aggregation was carried out by using NBS HEMA TRACER 601.

guinea-pig trachea [1] = assay: Bronchodilating effect in vitro, Method 1-2: relaxation of guinea-pig trachea strips (no LTD4 contraction); type: cell-based; settings: Cavia porcellus; Method 1-2; trachea conditioned with 1 μM isoproterenol, no LTD4; DMSO 0.2 v/v%; read-out: EC50 (concentration to achieve 50% relaxation relative to relaxation by 1 mM aminophylline)
Procedure: (§1) A test sample drug was dissolved in 100% dimethylsulfoxide (DMSO, Wako Junyaku) and diluted for use. Leukotriene D4 (LTD4, Ultrafine) and isoproterenol (Isoproterenol, Sigma) were diluted with distilled water. Indomethacin (Indo, Sigma) was dissolved in 100% ethanol (EtOH, Komune Kagaku). Aminophylline (AP, Sigma), histamine dihydrochloride (His, Wako Junyaku) was dissolved in distilled water. The final concentrations of DMSO and EtOH in a bath were made not higher than 0.25% v/v and not higher than 0.1% v/v, respectively. Method 1:1:
(§2) A guinea-pig of 300-450 g was exsanguinated, and the trachea was taken out. After removing fat and connective tissues, it was cut and divided into 2 to 3 spiral strips, each having a width of about 2 mm and containing 4 smooth muscle tissues. Each specimen thus prepared was suspended in an organ bath of 8 ml containing a modified Tyrode solution aerated with 95% O2 +5% CO2 at 37° C., and a load of 1 g was applied thereto. The relaxation of the muscle was recorded by a pen recorder (Yokogawa Hokushin Electric, type 3066) by means of an isotonic transducer (Nihon Kohden, TD-112S).
The same measuring method as method 1-1 was employed. The specimen was allowed to stand for from 60 to 90 minutes and then relaxed by an addition of 1 μM of isopreterenol. The specimen was washed, and this operation was repeated at an interval of from 30 to 40 minutes until a constant relaxation reaction was reached. Then, a test sample drug was accumulately applied to relax the specimen. Finally, 1 mM of AP was added to achieve the maximum relaxation reaction. The result was expressed by relaxation percent relative to the relaxation by AP which was rated 100%, and a concentration to achieve 50% relaxation (EC50, μM) was obtained. The final concentration of DMSO in the bath was adjusted to be 0.2 v/v%. As a control drug, AP was used.

guinea-pig trachea [2] = assay: Bronchodilating effect in vitro, Method 1-1: relaxation of LTD4-contracted guinea-pig trachea strips; type: cell-based; settings: Method 1-1, LTD4 (30 nM) contracted trachea, indomethacin 5 μM, read-out: EC50 (concentration to achieve 50% relaxation relative to relaxation by 1 mM aminophylline)
Procedure: as §1, §2
The composition of the modified Tyrode solution was as follows (mM):
The specimen was allowed to stand for 50-60 minutes, and was contracted with histamine dihydrochloride (100 μM). After the reaction became constant, it was washed and allowed to stand for 20-30 minutes. Indomethacin (5 μM) was added thereto, and after incubation for 30 minutes, the specimen was contracted by adding LTD4 (30 nM). After the reaction-became stable, a test sample drug was accumulatively administered. Finally, AP (1 mM) was added to achieve the maximum relaxation reaction. The result was expressed by relaxation percent relative to the relaxation by AP which was rated 100%, and a concentration to achieve 50% relaxation (EC50, μM) was measured. As a control drug, AP was used.

[3] = tested on: anaphylactic bronchoconstriction mediated by endogeneously liberated SRS-A; assay: Effect on anaphylactic bronchoconstriction mediated by endogeneously liberated SRS-A in passively sensitized guinea-pig; type: in vivo; settings: 30 mg/kg, orally 2 hours before EA challenge; for inhibition in vivo at 30 mg/kg: Cavia porcellus, po, 2 h, read-out: Inhibition of broncho-constriction
Procedure: Effect on anaphylactic bronchoconstriction mediated by endogeneously liberated SRS-A in passively sensitized guinea-pig
Male guinea-pigs (350-450 g) were passively sensitized with intravenous (i.v.) injection of 0.125 ml rabbit anti-EA (egg albumin) serum (Capple Laboratories) 1 to 2 days preceding the experiment. Antigen-induced anaphylactic bronchoconstrictions mediated by endogeneously liberated SRS-A were measured by modified method of Konzett and Rossler (Arch. Exp. Path. Pharmak., 195, 71, 1940). Sensitized quinea-pigs were anaesthetized with intraperitoneal injection of urethane (1.5 g/kg). The right jugular vein was cannulated for the administration of the all agents and trachea was cannulated to record total pulmonary resistance. Guinea-pigs were artificially ventilated by a small animal respirator (Shinano, Model SN-480-7) set at a stroke volume of 4.5 ml and a rate of 50 breaths per min. The change in pulmonary resistance was measured with a pressure transducer (Nihon Kohden, Model TP-602T) connected to a T-tube on the tracheal cannula. The percentage of the maximum bronchoconstriction obtained by clamping off the trachea. Following surgical preparation, the animals were pretreated with indomethacin (2 mg/kg, 10 min), pyrilamine (2 mg/kg, 6 min) and propranolol (0.1 mg/kg, 5 min) prior to the EA challenge (0.2 mg/kg). All test compounds were administered orally 2 hours before the EA challenge. Inhibition (%) of broncho-constriction was determined as follows: Inhibition (%)=(1.0-% maximum bronchoconstriction in test/% maximum bronchoconstriction in control)×100. The maximum bronchoconstriction was 62±6% (Mean±S.E.M; n=6) and the number of test animals was 5-6.

[4] = Oryctolagus cuniculus, Platelet

EC50 (guinea-pig trachea [1]) [nM]	EC50 (guinea-pig trachea [2]; Cavia porcellus) [nM]	Structure (SMILES)	further results
		COc1ccc(CNc2cn[nH]c(=O)c2Br)cc1OCCN1CCN(Cc2ccccc2)CC1 [Compound 6]	IC50 (platelet): 3900 nM
540	770	COc1ccc(CNc2cn[nH]c(=O)c2Cl)cc1OCCCC(=O)N1CCN(Cc2ccccc2)CC1 [Compound 47]	IC50 (platelet; [4]): 5700 nM; inhibition in vivo at 30 mg/kg [3]: 37%
39		COc1ccc(CNc2c(OC(C)C)n[nH]c(=O)c2Cl)cc1OCC(=O)N1CCN(Cc2ccc(NC(C)=O)cc2)CC1 [Compound 80]	inhibition in vivo at 30 mg/kg [3]: 30%
210	950	COc1ccc(CNc2cn[nH]c(=O)c2Br)cc1OCCCC(=O)N1CCN(Cc2ccccc2)CC1 [Compound 48]	IC50 (platelet; [4]): 4000 nM
		COc1ccc(CNc2cn[nH]c(=O)c2Br)cc1OCC(=O)N1CCN(Cc2ccccc2)CC1 [Compound 38]	IC50 (platelet; [4]): 1200 nM
340		COc1ccc(CNc2cn[nH]c(=O)c2Cl)cc1OCCN1CCN(Cc2ccc(F)cc2)CC1 [Compound 16]	IC50 (platelet): 5200 nM
300		COc1ccc(CNc2cn[nH]c(=O)c2Cl)cc1OCCCN1CCN(Cc2ccccc2)CC1 [Compound 54]	EC50 (guinea-pig trachea [2]): 2400 nM
	3100	COc1ccc(CNc2cn[nH]c(=O)c2Cl)cc1OCC(O)CN1CCN(Cc2ccc(F)cc2)CC1 (centres unmarked) [Compound 53]	
250		CCOc1n[nH]c(=O)c(Cl)c1NCc1ccc(OC)c(OCCCN2CCN(Cc3ccc4ccccc4n3)CC2)c1 [Compound 71]	
	480	COc1ccc(CNc2cn[nH]c(=O)c2Cl)cc1OCCN1CCN(Cc2ccc(F)cc2)CC1 [Compound 15]	IC50 (platelet; [4]): 4500 nM
	420	COc1ccc(CNc2cn[nH]c(=O)c2Br)cc1OCCN1CCN(Cc2ccccc2)CC1 [Compound 5]	IC50 (platelet; [4]): 4100 nM
57		COc1ccc(CNc2c(OC(C)C)n[nH]c(=O)c2Cl)cc1OCC(O)CN1CCN(Cc2ccc(NC=O)cc2)CC1 (centres unmarked) [Compound 77]	inhibition in vivo at 30 mg/kg [3]: 65%
	1100	COc1ccc(CNc2cn[nH]c(=O)c2Cl)cc1OCCCCCC(=O)N1CCN(Cc2ccccc2)CC1 [Compound 49]	
400		CCOc1n[nH]c(=O)c(Cl)c1NCc1ccc(OC)c(OCCN2CCC(Cc3ccccc3)CC2)c1 [Compound 75]	
360		CCOc1n[nH]c(=O)c(Cl)c1NCc1ccc(OC)c(OCCN2CCN(Cc3ccc(F)cc3)CC2)c1 [Compound 65]	
490		CCOc1n[nH]c(=O)c(Cl)c1NCc1ccc(OC)c(OCC(=O)N2CCN(Cc3nc4ccccc4n3Cc3ccc(F)cc3)CC2)c1 [Compound 73]	
	6900	COc1ccc(CNc2cn[nH]c(=O)c2Cl)cc1OCC(=O)NCc1cccnc1 [Compound 31]	
430		CCOc1n[nH]c(=O)c(Cl)c1NCc1ccc(OC)c(OCC(C)(C)C(=O)N2CCN(Cc3ccc(F)cc3)CC2)c1 [Compound 69]	
		COc1ccc(CNc2cn[nH]c(=O)c2Br)cc1OCCN1CCN(Cc2ccc(F)cc2)CC1 [Compound 14]	IC50 (platelet): 3500 nM
50		COc1ccc(CNc2cn[nH]c(=O)c2Cl)cc1OCC(=O)N1CCC(Cc2ccccc2)CC1 [Compound 62]	
	4000	CCn1ncc(NCc2ccc(OC)c(OCCCN3CCN(Cc4ccc(F)cc4)CC3)c2)c(Cl)c1=O [Compound 27]	
		COc1ccc(CNc2cn[nH]c(=O)c2Cl)cc1OCC(=O)N1CCN(Cc2ccccc2)CC1 [Compound 37]	Inhibition of broncho-constriction [3]: 54%
	450	COc1ccc(CNc2cn[nH]c(=O)c2Br)cc1OCCN1CCN(Cc2ccc(F)cc2)CC1 [Compound 13]	IC50 (platelet; [4]): 2900 nM
46		CCOc1n[nH]c(=O)c(Cl)c1NCc1ccc(OC)c(OCC(=O)N2CCC(Cc3ccccc3)CC2)c1 [Compound 74]	inhibition in vivo at 30 mg/kg [3]: 30%
	1700	COc1ccc(CNc2cn[nH]c(=O)c2Cl)cc1OCCN1CCN(Cc2ccccc2)CC1 [Compound 4]	IC50 (platelet; [4]): 5200 nM
	7300	COc1ccc(CNc2cn[nH]c(=O)c2Cl)cc1OC(C)CN1CCN(Cc2ccc(F)cc2)CC1 (centres unmarked) [Compound 55]	

Structure (SMILES)	EC50 (guinea-pig trachea [1]) [nM]	EC50 (guinea-pig trachea [2]; Cavia porcellus) [nM]	further results
COc1ccc(CNc2cn[nH]c(=O)c2Cl)cc1OCC(=O)N1CCN(Cc2ccc(F)cc2)CC1 [Compound 39]	170	160	IC50 (platelet; [4]): 1400 nM; inhibition in vivo at 30 mg/kg [3]: 63%
COc1ccc(CNc2cn[nH]c(=O)c2Cl)cc1OCC(=O)N1CCN(Cc2ccc(Cl)cc2)CC1 [Compound 51]	97	6100	IC50 (platelet; [4]): 1100 nM
COc1ccc(CNc2cn[nH]c(=O)c2Cl)cc1OCC(=O)N1CCN(Cc2ccc3ccccc3n2)CC1 [Compound 61]	310		
COc1ccc(CNc2c(OC(C)C)n[nH]c(=O)c2Cl)cc1OCC(=O)N1CCN(Cc2ccc(NC=O)cc2)CC1 [Compound 79]	41		
COc1ccc(CNc2c(OC(C)C)n[nH]c(=O)c2Cl)cc1OCC(=O)N1CCN(Cc2ccc(N)cc2)CC1 [Compound 78, 4-Chloro-5-[3-(4-(4-aminobenzyl)-piperazin-1-yl)-carbonylmethoxy-4-methoxybenzylamino]-6-isopropoxy-3(2H)-pyridazinone]	14		inhibition in vivo at 30 mg/kg [3]: 54%
COc1ccc(CNc2cn[nH]c(=O)c2Br)cc1OCC(=O)N1CCN(Cc2cccnc2)CC1 [Compound 34]		3800	
CCOc1n[nH]c(=O)c(Cl)c1NCc1ccc(OC)c(OCC(=O)N2CCN(Cc3ccccc3)CC2)c1 [Compound 66]	67	180	
COc1ccc(CNc2c(OC(C)C)n[nH]c(=O)c2Cl)cc1OCC(=O)N1CCN(Cc2ccc(F)cc2)CC1 [Compound 76]	48	690	
COc1ccc(CNc2cn[nH]c(=O)c2Cl)cc1OCC(=O)N1CCN(Cc2cccnc2)CC1 [Compound 35]		6600	
Cn1c(=O)c2[nH]cnc2n(C)c1=O [Aminophylline, reference compound]	37000	178000	

From patent US5929074A, “Pyridazinone derivatives with pharmaceutical activity” (Nissan Chemical Industries, Ltd., priority 1993, dated 1999)
